From ChEMBL document CHEMBL5030550, “A late-stage diversification via Heck-Matsuda arylation: Straightforward synthesis and cytotoxic/antiproliferative profiling of novel aryl-labdane-type derivatives” (Bioorg Med Chem Lett, 2021)

Experiments:
THP-1 [1] = experiment: Cytotoxicity against human THP-1 cells assessed as reduction in cell viability measured after 24 hrs by MTT assay; assay type: functional, cell-based; details: THP-1, 24 h
THP-1 [2] = experiment: Cytotoxicity against human THP-1 cells assessed as reduction in cell viability measured after 72 hrs by MTT assay; assay type: functional, cell-based; details: THP-1, 72 h
K562 [3] = experiment: Cytotoxicity against human K562 cells assessed as reduction in cell viability measured after 24 hrs by MTT assay; assay type: functional, cell-based; details: K562, 24 h
K562 [4] = experiment: Cytotoxicity against human K562 cells assessed as reduction in cell viability measured after 72 hrs by MTT assay; assay type: functional, cell-based; details: K562, 72 h
MCF7 [5] = experiment: Cytotoxicity against human MCF7 cells assessed as reduction in cell viability measured after 24 hrs by MTT assay; assay type: functional, cell-based; details: MCF7, 24 h
MCF7 [6] = experiment: Cytotoxicity against human MCF7 cells assessed as reduction in cell viability measured after 72 hrs by MTT assay; assay type: functional, cell-based; details: MCF7, 72 h
HUVEC [7] = experiment: Cytotoxicity against HUVEC assessed as reduction in cell viability measured after 24 hrs by MTT assay; assay type: cell-based; details: Homo sapiens
HUVEC [8] = experiment: Cytotoxicity against HUVEC assessed as reduction in cell viability measured after 72 hrs by MTT assay; assay type: cell-based; details: Homo sapiens
K562 [9] = experiment: Cell cycle arrest in human K562 cells assessed as accumulation at sub G1 phase at 25 uM measured after 24 hrs by propidium iodide staining based flow cytometry analysis (reference value: 6.5+/- 0.7%); assay type: functional
K562 [10] = experiment: Cell cycle arrest in human K562 cells assessed as accumulation at G1 phase at 25 uM measured after 24 hrs by propidium iodide staining based flow cytometry analysis (reference value: 43.5+/- 0.3%); assay type: functional
K562 [11] = experiment: Cell cycle arrest in human K562 cells assessed as accumulation at S phase at 25 uM measured after 24 hrs by propidium iodide staining based flow cytometry analysis (reference value: 22.8+/- 0.5%); assay type: functional
K562 [12] = experiment: Cell cycle arrest in human K562 cells assessed as accumulation at G2/M phase at 25 uM measured after 24 hrs by propidium iodide staining based flow cytometry analysis (reference value: 25.6+/- 0.7%); assay type: functional
K562 [13] = experiment: Cell cycle arrest in human K562 cells assessed as accumulation at sub G1 phase at 50 uM measured after 24 hrs by propidium iodide staining based flow cytometry analysis (reference value: 6.5+/- 0.7%); assay type: functional
K562 [14] = experiment: Cell cycle arrest in human K562 cells assessed as accumulation at G1 phase at 50 uM measured after 24 hrs by propidium iodide staining based flow cytometry analysis (reference value: 43.5+/- 0.3%); assay type: functional
K562 [15] = experiment: Cell cycle arrest in human K562 cells assessed as accumulation at S phase at 50 uM measured after 24 hrs by propidium iodide staining based flow cytometry analysis (reference value: 22.8+/- 0.5%); assay type: functional
K562 [16] = experiment: Cell cycle arrest in human K562 cells assessed as accumulation at G2/M phase at 50 uM measured after 24 hrs by propidium iodide staining based flow cytometry analysis (reference value: 25.6+/- 0.7%); assay type: functional
K562 [17] = experiment: Cell cycle arrest in human K562 cells assessed as accumulation at sub G1 phase at 100 uM measured after 24 hrs by propidium iodide staining based flow cytometry analysis (reference value: 6.5+/- 0.7%); assay type: functional
K562 [18] = experiment: Cell cycle arrest in human K562 cells assessed as accumulation at G1 phase at 100 uM measured after 24 hrs by propidium iodide staining based flow cytometry analysis (reference value: 43.5+/- 0.3%); assay type: functional
K562 [19] = experiment: Cell cycle arrest in human K562 cells assessed as accumulation at S phase at 100 uM measured after 24 hrs by propidium iodide staining based flow cytometry analysis (reference value: 22.8+/- 0.5%); assay type: functional
K562 [20] = experiment: Cell cycle arrest in human K562 cells assessed as accumulation at G2/M phase at 100 uM measured after 24 hrs by propidium iodide staining based flow cytometry analysis (reference value: 25.6+/- 0.7%); assay type: functional
K562 [21] = experiment: Induction of ROS production in human K562 cells at 100 uM incubated for 24 hrs relative to control; assay type: functional
K562 [22] = experiment: Induction of apoptosis in human K562 cells at 25 uM after 24 hrs by PI staining based flow cytometric analysis (reference value: 0.1+/- 0.05%); assay type: functional
K562 [23] = experiment: Induction of apoptosis in human K562 cells at 50 uM after 24 hrs by PI staining based flow cytometric analysis (reference value: 0.1+/- 0.05%); assay type: functional
K562 [24] = experiment: Induction of apoptosis in human K562 cells at 100 uM after 24 hrs by PI staining based flow cytometric analysis (reference value: 0.1+/- 0.05%); assay type: functional
K562 [25] = experiment: Induction of autophagy in human K562 cells at 25 uM after 24 hrs (reference value: 3.9+/- 1.1%); assay type: functional
K562 [26] = experiment: Induction of autophagy in human K562 cells at 50 uM after 24 hrs (reference value: 3.9+/- 1.1%); assay type: functional
K562 [27] = experiment: Induction of autophagy in human K562 cells at 100 uM after 24 hrs (reference value: 3.9+/- 1.1%); assay type: functional

| SMILES | IC50 (THP-1 [1]) [µM] | IC50 (THP-1 [2]) [µM] | IC50 (K562 [3]) [µM] | IC50 (K562 [4]) [µM] | IC50 (MCF7 [5]) [µM] | IC50 (MCF7 [6]) [µM] | IC50 (HUVEC [7]) [µM] | IC50 (HUVEC [8]) [µM] | other results |
| --- | --- | --- | --- | --- | --- | --- | --- | --- | --- |
| Cc1ccc(/C=C2\CC[C@H]3C(C)(C)CCC[C@]3(C)[C@H]2CCC(C)CC(=O)O)cc1 (some centres not stated) | > 200 | 91 | > 200 | > 200 | > 200 | > 200 | > 200 | > 200 | – |
| COc1ccc(/C=C2\CC[C@H]3C(C)(C)CCC[C@]3(C)[C@H]2CCC(C)CC(=O)O)cc1OC (some centres not stated) | 178 | 106 | > 200 | > 200 | > 200 | > 200 | > 200 | > 200 | – |
| CC(CC[C@H]1/C(=C/c2ccc(Cl)cc2)CC[C@H]2C(C)(C)CCC[C@]12C)CC(=O)O (some centres not stated) | > 200 | > 200 | > 200 | > 200 | – | – | > 200 | > 200 | – |
| COc1ccc(/C=C2\CC[C@H]3C(C)(C)CCC[C@]3(C)[C@H]2CCC(C)CC(=O)O)cc1 (some centres not stated) | > 200 | > 200 | > 200 | > 200 | – | – | > 200 | > 200 | – |
| CC(CC[C@H]1/C(=C/c2ccc(Br)cc2)CC[C@H]2C(C)(C)CCC[C@]12C)CC(=O)O (some centres not stated) | > 200 | > 200 | > 200 | > 200 | – | – | > 200 | > 200 | – |
| CC(CC[C@H]1/C(=C/c2ccc(F)cc2)CC[C@H]2C(C)(C)CCC[C@]12C)CC(=O)O (some centres not stated) | > 200 | > 200 | > 200 | > 200 | – | – | > 200 | > 200 | – |
| CC(CC[C@H]1/C(=C/c2ccc(I)cc2)CC[C@H]2C(C)(C)CCC[C@]12C)CC(=O)O (some centres not stated) | 68 | 33 | 98 | 55 | 89 | 50 | 194 | 100 | Activity (K562 [9]): 7.2%; Activity (K562 [10]): 44.5%; Activity (K562 [11]): 24.4%; Activity (K562 [12]): 24.1%; Activity (K562 [13]): 8.5%; Activity (K562 [14]): 43.3%; Activity (K562 [15]): 23.2%; Activity (K562 [16]): 21.9%; Activity (K562 [17]): 35.8%; Activity (K562 [18]): 27.5%; Activity (K562 [19]): 18.2%; Activity (K562 [20]): 17.1%; Activity (K562 [21]): 17.7%; Activity (K562 [22]): 2.4%; Activity (K562 [23]): 0.4%; Activity (K562 [24]): 1.1%; Activity (K562 [25]): 7.3%; Activity (K562 [26]): 14.6%; Activity (K562 [27]): 25.2% |
| C=C1CC[C@H]2C(C)(C)CCC[C@]2(C)[C@H]1CCC(C)CC(=O)O (some centres not stated) | > 200 | 132 | > 200 | > 200 | > 200 | > 200 | > 200 | 168 | – |
| C=C1CC[C@H]2C(C)(C)CCC[C@]2(C)[C@H]1CCC(C)CC(=O)OC (some centres not stated) | > 200 | > 200 | > 200 | > 200 | > 200 | > 200 | > 200 | > 200 | – |
| CC(CC[C@H]1/C(=C/c2ccc([N+](=O)[O-])cc2)CC[C@H]2C(C)(C)CCC[C@]12C)CC(=O)O (some centres not stated) | 180 | 68 | > 200 | 169 | > 200 | 124 | > 200 | 194 | – |
| COc1cc([C@@H]2c3cc4c(cc3[C@@H](O[C@@H]3O[C@@H]5CO[C@@H](C)O[C@H]5[C@H](O)[C@H]3O)[C@H]3COC(=O)[C@H]23)OCO4)cc(OC)c1O [ETOPOSIDE] | 59 | < 6.25 | > 200 | 66 | > 100 | 50 | > 200 | 29 | Activity (K562 [17]): 13%; Activity (K562 [18]): 20.6%; Activity (K562 [19]): 26%; Activity (K562 [20]): 30.4% |
| O=c1[nH]cc(F)c(=O)[nH]1 [FLUOROURACIL] | – | – | – | – | > 200 | 166 | > 200 | 96 | – |
